Assay results as given in patent US20260355184A1, “SMALL MOLECULE DEGRADERS OF HIV-1 TAT PROTEIN” (priority 2022, published 2026).

How the values were obtained:
GFP = assay: Degradation assay control: GFP in HEK293T cells, western blot; type: cell-based
Protocol: (§1) Next, the effect of the three leads on the alteration of Tat steady state levels was assessed. Tat expression from an integrated provirus, or from HIV acute infection is generally too low to be detected by western blot. Furthermore, antibodies against Tat are known for their lack of avidity. Tat degradation was thus assessed upon transfection. Flag-Tat or Flag-GFP were individually transfected into HEK293T and 24 hrs later, TT-44856, TT-44863 or TT-44881 were added to the culture, followed by Western blot 24 hrs later (dubbed “degradation assay”) (FIG. 5A). […] Finally, the leads' impact on recombinant Tat protein in HEK293T cells was assessed (FIG. 5D). HEK293T cells were incubated with recombinant Tat for 4 hrs to allow Tat internalization, followed by several thorough washes to remove unincorporated Tat. Cells were then incubated with all three leads (or Triptolide) for an additional 2 hrs. Cells were lysed and analyzed by western blot with an anti-Tat serum.

Tat Y26A = Tat Y26A (Human immunodeficiency virus type 1 (HXB3 ISOLATE), UniProt P69698, Y26A); conditions: TT-44856 and TT-44863 40 μM, TT-44881 60 μM
Tat Y26A, sequence (P69698 whole entry Y26A): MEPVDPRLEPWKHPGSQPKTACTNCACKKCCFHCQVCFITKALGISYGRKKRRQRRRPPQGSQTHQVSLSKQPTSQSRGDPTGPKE
Text: (§2) The molecular docking of HIV Tat protein bound to dCA was previously reported, informed by a series of more than 60 analogs of dCA, using AutoDock Vina with the NMR HIV Tat Mal protein (D clade) as a template (Protein data Bank, PDB entry 1K5K)21. […] Single changes to residues Y26 and F38 decrease Tat transactivation activity^33-36. […] To validate the molecular docking model, Tat variants with either deletions or mutated residues were used in degradation assays in the presence of leads.

Tat F38A = Tat F38A (Human immunodeficiency virus type 1 (HXB3 ISOLATE), UniProt P69698, F38A); conditions: TT-44856 and TT-44863 40 μM, TT-44881 60 μM
Tat F38A, sequence (P69698 whole entry F38A): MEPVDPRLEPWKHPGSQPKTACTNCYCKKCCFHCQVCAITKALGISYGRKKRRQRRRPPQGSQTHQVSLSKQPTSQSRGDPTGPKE
Text: as §2

[1] = biological target: Tat variants with cysteine or core regions truncated (Human immunodeficiency virus type 1 (HXB3 ISOLATE), UniProt P69698); conditions: TT-44856 and TT-44863 40 μM, TT-44881 60 μM
Text: as §2

Tat lysine mutants = conditions: TT-44881 60 μM; for Tat degradation, single or combined lysine mutations / Tat degradation, additional lysine mutations to K28R, K29R and K41R: TT-44856 40 μM; for Tat degradation, single or combined lysine mutations / Tat degradation, K28R, K29R and K41R: n=1; for Tat degradation, additional lysine mutations to K28R, K29R and K41R: n=2; for Tat degradation, K28R, K29R and K41R: TT-44856 and TT-44863 40 μM
Text: Tat 86 a.a. has 9 lysine residues (FIG. 8D) that could be engaged by lysine 48-linked ubiquitin chains or nonconventional ubiquitin chains, i.e., non-Lys-48 or non-Lys-63, to be degraded through the 26S proteasomal pathway^3738. […] Tat lysine residues required for leads' degradation engagement can be determined.
In addition to K28-29-K41R, other Tat's lysine residues were mutated and degradation assays performed in the presence of TT-44881 or TT-44856.

recombinant Tat = biological target: T1, recombinant Tat (Human immunodeficiency virus type 1 (HXB3 ISOLATE), UniProt P69698); assay: Recombinant Tat stability in HEK293T cells, western blot; type: cell-based, HIV; conditions: 4 hrs recombinant Tat then 2 hrs compound, n=1
T1 construct: detected with anti-Tat serum
T1 sequence (P69698 whole entry): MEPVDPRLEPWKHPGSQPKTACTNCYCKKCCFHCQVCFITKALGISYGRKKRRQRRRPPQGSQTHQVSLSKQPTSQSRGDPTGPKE
Protocol: as §1

HIV Tat = assay: Tat-TAR assay (HIV LTR luciferase transactivation, PL11 cells); type: cell-based; conditions: for activity against Tat 86 a.a. from different HIV clades: HIV clade B, C and E, n=1; for IC50 against Tat 86 and 101 residues (comparison): Tat 86 a.a. vs 101 a.a.
Text: Tat is a 14 kDa protein that is synthesized from an mRNA joined from 2 coding exons (FIG. 1B). The first exon encodes amino acids 1-72 and (in most strains of HIV), the second exon encodes amino acids 73-101. An N-terminal 86-amino acid form of Tat produced in a few laboratory-passaged virus strains is frequently used to study Tat. The classic cell-based Tat transactivation assay of the HIV LTR driving luciferase was optimized as a reporter gene for HTS9 (FIG. 2A). […] LTR activation is triggered by transfection of a plasmid expressing HIV-1HXB3 Tat (101 a.a.) driven by the phosphoglycerate (PGK) promoter.

Flag-Tat and GFP = Flag-Tat and GFP (Human immunodeficiency virus type 1 (HXB3 ISOLATE), UniProt P69698); assay: J-Lat A2 cells stimulated with TNF-α, western blot of Flag-Tat and GFP; type: cell-based, HIV; conditions: TNF-α 20 ng/mL, 17 hours
Flag-Tat and GFP, sequence (P69698 whole entry): as above
Protocol: FIG. 5. […] Triptolide: 1 nM, TT-44856 and TT-44863: 40 μM, TT-44881: 60 μM. […] C. Impact of the lead hits on J-Lat A2 cells upon 17 hours stimulation with TNF-α (20 ng/mL). EPL: 10 μM, Triptolide (TRP): 1 nM, TT-44856 and TT-44863: 40 μM, TT-44881: 60 μM. […] Triptolide: 1 nM, TT-44856 and TT-44863: 40 μM, TT-44881: 60 μM.
as §1

[2] = Cytotoxicity assay, Cell-Titer-Glo, HeLa-CD4-LTR-LacZ; conditions: human, hela-cd4-ltr-lacz cells, Infectivity CC50, HeLa-CD4-LTR-LacZ
How it was run: (§3)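 HeLa-CD4-LTR-LacZ reporter cells (β-Gal under HIV 5′ LTR) infected with HIV NL4.3; β-Gal activity read 72 h post infection, with parallel Cell-Titer-Glo viability. OM10.1 carry a single wild-type provirus; ACH-2 a single provirus with TAR C37T mutation, defective Tat-TAR feedback.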

HeLa-CD4-LTR-LacZ cells = assay: as above; conditions: Cell-Titer-Glo in parallel to infectivity assay
How it was run: as §3

Tat or GFP mRNA = Tat or GFP mRNA expression in HEK293T cells; type: cell-based; conditions: n=3

Structure (SMILES): CC(C(=O)NCCCn1ccnc1)(c1ccccc1)c1ccccc1 [TT-44856]
- effect on GFP expression (GFP): did not affect GFP expression
- Tat degradation, Y26A mutation (Tat Y26A): ablated lead hits' ability to mediate Tat degradation
- Tat degradation, F38A mutation (Tat F38A): only weakly reduced lead hits mediated degradation
- Flag-Tat degradation, cysteine or core regions truncated [1]: no longer degraded Flag-Tat
- Tat degradation, single or combined lysine mutations (Tat lysine mutants): all the mutants were similarly degraded to the control
- Tat degradation, additional lysine mutations to K28R, K29R and K41R (Tat lysine mutants): required either K50/51, K71 or K85
- Tat degradation, K28R, K29R and K41R (Tat lysine mutants): do not prevent lead hits induced Tat degradation
- recombinant Tat degradation (recombinant Tat): degraded Tat as opposed to the DMSO control
- activity against Tat 86 a.a. from different HIV clades (HIV Tat): activity was confirmed
- IC50 against Tat 86 and 101 residues (comparison) (HIV Tat): Equivalent IC50
- Flag-Tat and GFP levels in J-Lat A2 cells (Flag-Tat and GFP): strongly reduced
- CC50 ([2]; analogs of TT-44856 (Table 3)): > 100 µM
- toxicity (HeLa-CD4-LTR-LacZ cells): without signs of toxicity
- effect on Tat or GFP mRNA expression (Tat or GFP mRNA): without affecting Flag-Tat mRNA levels

Structure (SMILES): COCCOc1ccc(C(F)(F)F)cc1NC(=O)Cn1cc(C(F)(F)F)cc(Cl)c1=O [TT-44863]
- effect on GFP expression (GFP): did not affect GFP expression
- Tat degradation, Y26A mutation (Tat Y26A): ablated lead hits' ability to mediate Tat degradation
- Tat degradation, F38A mutation (Tat F38A): only weakly reduced lead hits mediated degradation
- Flag-Tat degradation, cysteine or core regions truncated [1]: no longer degraded Flag-Tat
- Tat degradation, K28R, K29R and K41R (Tat lysine mutants): do not prevent lead hits induced Tat degradation
- recombinant Tat degradation (recombinant Tat): degraded Tat as opposed to the DMSO control
- activity against Tat 86 a.a. from different HIV clades (HIV Tat): activity was confirmed
- IC50 against Tat 86 and 101 residues (comparison) (HIV Tat): Equivalent IC50
- Flag-Tat and GFP levels in J-Lat A2 cells (Flag-Tat and GFP): strongly reduced
- CC50 ([2]; analogs of TT-44863 (Table 2)): > 800 µM
- toxicity (HeLa-CD4-LTR-LacZ cells): without signs of toxicity
- effect on Tat or GFP mRNA expression (Tat or GFP mRNA): without affecting Flag-Tat mRNA levels

Structure (SMILES): O=C(CCCCN1CCCC1=O)c1nn(-c2ccccc2)c2c1CCC2 [TT-44881]
- effect on GFP expression (GFP): did not affect GFP expression
- Tat degradation, Y26A mutation (Tat Y26A): ablated lead hits' ability to mediate Tat degradation
- Tat degradation, F38A mutation (Tat F38A): only weakly reduced lead hits mediated degradation
- Flag-Tat degradation, cysteine or core regions truncated [1]: no longer degraded Flag-Tat
- Tat degradation, single or combined lysine mutations (Tat lysine mutants): all the mutants were similarly degraded to the control
- Tat degradation, additional lysine mutations to K28R, K29R and K41R (Tat lysine mutants): mutation of the K19 or K71 to arginine reduced TT-44881 induced Tat degradation
- Tat degradation, K28R, K29R and K41R (Tat lysine mutants): do not prevent lead hits induced Tat degradation
- recombinant Tat degradation (recombinant Tat): degraded Tat as opposed to the DMSO control
- activity against Tat 86 a.a. from different HIV clades (HIV Tat): activity was confirmed
- IC50 against Tat 86 and 101 residues (comparison) (HIV Tat): Equivalent IC50
- Flag-Tat and GFP levels in J-Lat A2 cells (Flag-Tat and GFP): strongly reduced
- CC50 ([2]; analogs of TT-44881 (Table 1)): > 100 µM
- toxicity (HeLa-CD4-LTR-LacZ cells): without signs of toxicity
- effect on Tat or GFP mRNA expression (Tat or GFP mRNA): without affecting Flag-Tat mRNA levels
